Test results: ChEMBL document CHEMBL1145390, “Synthesis and preliminary biological characterization of new semisynthetic derivatives of ramoplanin” (J Med Chem, 2007)
In brackets after ≈: the same amount, converted by molar mass. Activity calls are given as the source filed them. The calls are words filed in the database; no cut-off is given here.

Tests used:
[1] = Toxicity assessed as hemolysis in erythrocytes at 1200 mg/L; type: cell-based, Erythrocyte; conditions: human, read-out: Activity
Streptococcus pyogenes = test: Antibacterial activity against Streptococcus pyogenes C203 after 24 hrs by broth microdilution method; type: functional; conditions: C203, 24 h, read-out: MIC
Staphylococcus aureus [2] = test: Antibacterial activity against methicillin-resistant and vancomycin-intermediate resistant Staphylococcus aureus clinical isolate after 24 hrs by broth microdilution method; type: functional; conditions: read-out: MIC
Enterococcus faecium [3] = test: Antibacterial activity against vancomycin A-resistant Enterococcus faecium clinical isolate in presence of 30% bovine serum after 24 hrs by broth microdilution method; type: functional
Enterococcus faecium [4] = test: Antibacterial activity against vancomycin A-resistant Enterococcus faecium clinical isolate after 24 hrs by broth microdilution method; type: functional; conditions: read-out: MIC
Staphylococcus aureus [5] = test: Antibacterial activity against Staphylococcus aureus Smith after 24 hrs by broth microdilution method; type: functional; conditions: read-out: MIC
[6] = Toxicity assessed as hemolysis in erythrocytes at 180 mg/L; type: cell-based, Erythrocyte; conditions: human, erythrocytes; read-out: Activity
Staphylococcus aureus [7] = test: Antibacterial activity against Staphylococcus aureus Smith in presence of 30% bovine serum after 24 hrs by broth microdilution method; type: functional
Escherichia coli = test: Antibacterial activity against Escherichia coli SKF-12140 after 24 hrs by broth microdilution method; type: functional; conditions: read-out: MIC
Staphylococcus aureus [8] = test: Antibacterial activity against methicillin-resistant Staphylococcus aureus clinical isolate after 24 hrs by broth microdilution method; type: functional; conditions: read-out: MIC
Enterococcus faecalis [9] = test: Antibacterial activity against vancomycin A-resistant Enterococcus faecalis after 24 hrs by broth microdilution method; type: functional; conditions: read-out: MIC
Candida albicans = test: Antifungal activity against Candida albicans SKF-2270 after 24 hrs by broth microdilution method; type: functional; conditions: read-out: MIC
Staphylococcus aureus [10] = test: Antibacterial activity against vancomycin-intermediate resistant Staphylococcus aureus clinical isolate after 24 hrs by broth microdilution method; type: functional
Enterococcus faecium [11] = test: Antibacterial activity against Enterococcus faecium after 24 hrs by broth microdilution method; type: functional; conditions: for MIC: read-out: MIC
[12] = Toxicity assessed as hemolysis in erythrocytes at 90 mg/L; type: cell-based, Erythrocyte; conditions: human, erythrocytes; read-out: Activity
[13] = Toxicity assessed as hemolysis in erythrocytes at 300 mg/L; type: cell-based, Erythrocyte; conditions: human, read-out: Activity
[14] = Toxicity assessed as hemolysis in erythrocytes at 600 mg/L; type: cell-based, Erythrocyte; conditions: human, read-out: Activity
Enterococcus faecalis [15] = test: Antibacterial activity against Enterococcus faecalis after 24 hrs by broth microdilution method; type: functional; conditions: read-out: MIC
Enterococcus faecalis [16] = test: Antibacterial activity against vancomycin-resistant Enterococcus faecalis in presence of 30% bovine serum after 24 hrs by broth microdilution method; type: functional
Staphylococcus aureus [17] = test: Antibacterial activity against vancomycin-intermediate resistant Staphylococcus aureus clinical isolate in presence of 30% bovine serum after 24 hrs by broth microdilution method; type: functional

| Compound | hemolysis at 1200 mg/L [1] [%] | MIC (Streptococcus pyogenes) [µg/mL] | MIC (Staphylococcus aureus [2]) [µg/mL] | MIC (Enterococcus faecium [3]) [µg/mL] | MIC (Enterococcus faecium [4]) [µg/mL] | MIC (Staphylococcus aureus [5]) [µg/mL] | MIC (Staphylococcus aureus [7]) [µg/mL] | MIC (Escherichia coli) [µg/mL] | MIC (Staphylococcus aureus [8]) [µg/mL] | MIC (Enterococcus faecalis [9]) [µg/mL] | MIC (Candida albicans) [µg/mL] | MIC (Staphylococcus aureus [10]) [µg/mL] | MIC (Enterococcus faecium [11]) [µg/mL] | hemolysis at 300 mg/L [13] [%] | hemolysis at 600 mg/L [14] [%] | MIC (Enterococcus faecalis [15]) [µg/mL] | MIC (Enterococcus faecalis [16]) [µg/mL] | MIC (Staphylococcus aureus [17]) [µg/mL] | other results |
| --- | --- | --- | --- | --- | --- | --- | --- | --- | --- | --- | --- | --- | --- | --- | --- | --- | --- | --- | --- |
| Cc1ccc(CC(=O)N[C@@H](CC(N)=O)C(=O)NC[C@@H]2C(=O)N[C@H](c3ccc(O)cc3)C(=O)N[C@H](CCCN)C(=O)N[C@H](C(C)C)C(=O)N[C@@H](c3ccc(O)cc3)C(=O)N[C@H](c3ccc(O)cc3)C(=O)N[C@@H]([C@@H](C)O)C(=O)N[C@@H](Cc3ccccc3)C(=O)N[C@H](CCCN)C(=O)N[C@@H](c3ccc(O[C@H]4O[C@H](CO)[C@@H](O)[C@H](O)[C@@H]4O[C@H]4O[C@H](CO)[C@@H](O)[C@H](O)[C@@H]4O)cc3)C(=O)N[C@H]([C@@H](C)O)C(=O)N[C@@H](c3ccc(O)cc3)C(=O)NCC(=O)N[C@@H](CC(C)C)C(=O)N[C@H](C)C(=O)N[C@@H](c3ccc(O)c(Cl)c3)C(=O)O[C@@H]2C(N)=O)cc1.Cl | 9 | ≤ 0.125 | 4 | 2 | 0.5 | ≤ 0.125 | 0.5 | > 128 | ≤ 0.125 | ≤ 0.125 | > 128 | 2 | 0.5 | 2 | 11 | 0.25 | 2 | 4 | hemolysis at 180 mg/L [6]: 0%; hemolysis at 90 mg/L [12]: 0% |
| Cc1cccc(CC(=O)N[C@@H](CC(N)=O)C(=O)NC[C@@H]2C(=O)N[C@H](c3ccc(O)cc3)C(=O)N[C@H](CCCN)C(=O)N[C@H](C(C)C)C(=O)N[C@@H](c3ccc(O)cc3)C(=O)N[C@H](c3ccc(O)cc3)C(=O)N[C@@H]([C@@H](C)O)C(=O)N[C@@H](Cc3ccccc3)C(=O)N[C@H](CCCN)C(=O)N[C@@H](c3ccc(O[C@H]4O[C@H](CO)[C@@H](O)[C@H](O)[C@@H]4O[C@H]4O[C@H](CO)[C@@H](O)[C@H](O)[C@@H]4O)cc3)C(=O)N[C@H]([C@@H](C)O)C(=O)N[C@@H](c3ccc(O)cc3)C(=O)NCC(=O)N[C@@H](CC(C)C)C(=O)N[C@H](C)C(=O)N[C@@H](c3ccc(O)c(Cl)c3)C(=O)O[C@@H]2C(N)=O)c1 | 5 | ≤ 0.125 | 2 (≈ 0.781 µM) | 4 | 0.5 (≈ 0.195 µM) | ≤ 0.125 | 1 | > 128 | 0.25 (≈ 0.0976 µM) | ≤ 0.125 | > 128 | 1 (≈ 0.39 µM) | 0.5 (≈ 0.195 µM) | 0 | 0 | 0.25 (≈ 0.0976 µM) | 1 | 4 |  |
| Cc1ccccc1C(C)C(=O)N[C@@H](CC(N)=O)C(=O)NC[C@@H]1C(=O)N[C@H](c2ccc(O)cc2)C(=O)N[C@H](CCCN)C(=O)N[C@H](C(C)C)C(=O)N[C@@H](c2ccc(O)cc2)C(=O)N[C@H](c2ccc(O)cc2)C(=O)N[C@@H]([C@@H](C)O)C(=O)N[C@@H](Cc2ccccc2)C(=O)N[C@H](CCCN)C(=O)N[C@@H](c2ccc(O[C@H]3O[C@H](CO)[C@@H](O)[C@H](O)[C@@H]3O[C@H]3O[C@H](CO)[C@@H](O)[C@H](O)[C@@H]3O)cc2)C(=O)N[C@H]([C@@H](C)O)C(=O)N[C@@H](c2ccc(O)cc2)C(=O)NCC(=O)N[C@@H](CC(C)C)C(=O)N[C@H](C)C(=O)N[C@@H](c2ccc(O)c(Cl)c2)C(=O)O[C@@H]1C(N)=O (stereo partly specified) | 45 | ≤ 0.125 | 4 (≈ 1.55 µM) | 8 | 1 (≈ 0.388 µM) | 0.25 (≈ 0.097 µM) | 1 | > 128 | 0.5 (≈ 0.194 µM) | 1 (≈ 0.388 µM) | > 128 | 2 (≈ 0.776 µM) |  | 2 | 4 | 0.5 (≈ 0.194 µM) | 2 | 4 | Activity (Enterococcus faecium [11]): inactive |
